According to ChEMBL document CHEMBL3639364, “Preparation method of dihydroindene amide compounds, their pharmaceutical compositions containing compounds thereof and use as protein kinases inhibitor” (2014):

Experiments:
[1] = biological target: Mast/stem cell growth factor receptor Kit (Homo sapiens, UniProt P10721); test: (§1) Kinase buffer: 62.5 mM HEPES, pH 7.5; 0.001875% Brij-35; 12.5 mM MgCl2; 2.5 mM DTT. Stop buffer: 100 mM HEPES, pH 7.5; 0.015% Brij-35; 0.2% coating agent 3; 50 mM EDTA. Preparation of kinase solution: Kinase solution was obtained by dissolving kinases in the kinase buffer mentioned above. With regard to c-Kit kinase, the pre-activation treatments should be carried out as follows. 700 nM c-Kit, 2 mM ATP, 4 mM DTT and 10 mM MgCl2 were dissolved in kinase buffer. After being incubated at 28° C. for 15 minutes, the solution was added to the kinase buffer.
Sequence of Mast/stem cell growth factor receptor Kit (P10721 whole entry): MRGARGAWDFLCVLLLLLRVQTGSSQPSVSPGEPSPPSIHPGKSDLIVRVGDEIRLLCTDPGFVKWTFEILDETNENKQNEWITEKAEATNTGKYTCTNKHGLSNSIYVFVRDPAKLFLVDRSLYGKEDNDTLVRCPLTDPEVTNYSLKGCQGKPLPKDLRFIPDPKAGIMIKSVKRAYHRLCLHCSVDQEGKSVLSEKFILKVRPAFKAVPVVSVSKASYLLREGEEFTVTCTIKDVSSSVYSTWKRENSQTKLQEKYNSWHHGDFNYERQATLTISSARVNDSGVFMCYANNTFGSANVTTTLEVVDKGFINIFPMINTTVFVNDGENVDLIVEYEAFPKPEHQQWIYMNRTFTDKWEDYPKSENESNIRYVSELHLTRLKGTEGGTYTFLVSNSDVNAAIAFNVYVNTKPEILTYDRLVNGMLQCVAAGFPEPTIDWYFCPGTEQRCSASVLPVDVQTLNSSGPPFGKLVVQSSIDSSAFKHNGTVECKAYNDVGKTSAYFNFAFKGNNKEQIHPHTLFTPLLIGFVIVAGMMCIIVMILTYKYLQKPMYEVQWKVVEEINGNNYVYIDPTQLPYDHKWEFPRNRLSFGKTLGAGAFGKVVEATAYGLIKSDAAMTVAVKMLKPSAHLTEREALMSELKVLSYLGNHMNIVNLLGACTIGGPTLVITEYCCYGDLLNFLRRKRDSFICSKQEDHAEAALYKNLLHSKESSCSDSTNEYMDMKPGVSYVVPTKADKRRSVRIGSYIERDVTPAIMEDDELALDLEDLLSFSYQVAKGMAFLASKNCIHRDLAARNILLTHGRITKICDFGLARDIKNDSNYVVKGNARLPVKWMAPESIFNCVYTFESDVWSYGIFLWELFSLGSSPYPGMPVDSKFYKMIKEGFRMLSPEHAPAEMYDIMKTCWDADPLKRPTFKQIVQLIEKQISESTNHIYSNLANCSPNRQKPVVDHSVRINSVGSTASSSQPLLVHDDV

[2] = biological target: Platelet-derived growth factor receptor beta (Homo sapiens, UniProt P09619); test: as §1
Sequence of Platelet-derived growth factor receptor beta (P09619 whole entry): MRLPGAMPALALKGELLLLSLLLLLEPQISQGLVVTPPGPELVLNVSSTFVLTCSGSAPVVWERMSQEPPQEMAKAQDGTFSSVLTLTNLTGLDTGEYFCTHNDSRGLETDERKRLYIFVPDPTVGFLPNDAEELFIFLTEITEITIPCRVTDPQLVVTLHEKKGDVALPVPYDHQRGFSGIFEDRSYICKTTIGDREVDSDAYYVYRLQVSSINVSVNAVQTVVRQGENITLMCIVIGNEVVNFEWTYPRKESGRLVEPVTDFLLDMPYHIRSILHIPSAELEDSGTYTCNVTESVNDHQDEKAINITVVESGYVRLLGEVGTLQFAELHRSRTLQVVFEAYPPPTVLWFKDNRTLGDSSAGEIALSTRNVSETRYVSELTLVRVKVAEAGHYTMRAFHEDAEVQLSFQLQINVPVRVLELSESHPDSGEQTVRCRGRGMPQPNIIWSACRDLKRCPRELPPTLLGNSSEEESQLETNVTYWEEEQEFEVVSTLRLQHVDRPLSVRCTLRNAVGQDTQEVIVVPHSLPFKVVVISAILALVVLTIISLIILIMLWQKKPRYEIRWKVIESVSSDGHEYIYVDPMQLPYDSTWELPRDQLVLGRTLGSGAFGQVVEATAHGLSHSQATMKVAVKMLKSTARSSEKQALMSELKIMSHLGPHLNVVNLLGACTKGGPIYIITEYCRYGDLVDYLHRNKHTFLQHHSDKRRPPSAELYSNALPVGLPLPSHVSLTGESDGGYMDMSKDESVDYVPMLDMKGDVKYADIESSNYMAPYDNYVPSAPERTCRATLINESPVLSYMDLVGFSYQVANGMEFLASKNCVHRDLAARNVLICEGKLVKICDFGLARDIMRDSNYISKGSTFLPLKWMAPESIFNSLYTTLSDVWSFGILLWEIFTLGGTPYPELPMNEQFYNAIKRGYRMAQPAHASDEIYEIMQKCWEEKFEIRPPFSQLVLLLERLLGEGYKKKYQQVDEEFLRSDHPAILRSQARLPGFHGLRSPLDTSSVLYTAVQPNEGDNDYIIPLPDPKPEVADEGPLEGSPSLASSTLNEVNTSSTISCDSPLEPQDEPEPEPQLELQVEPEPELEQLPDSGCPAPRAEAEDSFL

SMILES | IC50 [1] | IC50 [2]
Cc1ccc(NC(=O)c2ccc3c(c2)CCC3N2CC[C@@H](N(C)C)C2)cc1Nc1nccc(-c2cccnc2)n1 (some centres undefined) | 32 nM | 21 nM
CCN1CCN(C2CCc3cc(C(=O)Nc4ccc(C)c(Nc5nccc(-c6cccnc6)n5)c4)ccc32)CC1 (centres undefined) | 26 nM | 15 nM
